These results are taken from PMC7153038, “Pharmacologic inhibition of RGD‐binding integrins ameliorates fibrosis and improves function following kidney injury” (Physiological Reports, 2020).

Structures are written as SMILES.

In experiment [1] the test system is aristolochic acid-induced kidney fibrosis in ICR mice. The experiment in a line: aristolochic acid kidney injury model, kidney histology and immunofluorescence. It counts as in vivo, mouse. The conditions noted are these: AA-injured, 100 mg/kg/day s.c. minipump. The protocol:
Alzet osmotic minipumps (Cupertino, CA) were implanted subcutaneously in 8‐ to 10‐week‐old wild‐type male ICR outbred mice (Envigo) one day prior to induction of kidney injury to deliver vehicle (DMSO/H2O 1:1) or CWHM‐12 at a dose of 100 mg/kg per day. A single 5 mg/kg dose of aristolochic acid I sodium salt (Sigma‐Aldrich, A9451) in PBS was administered intraperitoneally to induce kidney injury, and mice were monitored daily for 27 days thereafter. Control (uninjured) mice were injected with an equal volume of PBS. Blood was obtained by maxillary vein puncture on days 0, 5 (peak injury), and 28 (study endpoint). For testing CWHM‐680, oral gavage (100 mg/kg per day) was started one day prior to injection of aristolochic acid I sodium salt and continued once daily until the study endpoint. Blood was obtained at days 0, 7, and 23 (study endpoint). […] Serum creatinine was measured by liquid chromatography–mass spectrometry (LC–MS/MS) at the University of Alabama O’Brien Center Bioanalytical Core. CWHM‐12 and CWHM‐680 concentrations were measured in plasma samples by liquid chromatography–tandem mass spectrometry (LC/MS/MS) using compound spiked into control plasma as a standard. All experiments were performed under protocols approved by the Institutional Animal Care and Use Committee at St. Louis University.
Harvested kidneys were bisected and harvested for RNA and protein, and fixed in 4% PFA for antibody staining and histological staining with Sirius red or Masson's trichrome. Paraffin sections (4 µm) were stained with Sirius red or Masson trichrome and imaged with polarized light and bright‐field illumination. For immunofluorescence, 7‐μm frozen sections were washed with ice‐cold 100% methanol, boiled in 10 mM citric acid (pH 6) for 20 min, and incubated with primary antibodies against αSMA (Millipore), PDGFR‐β (gift from B. Stallcup), or with biotin‐LTL (Vector Laboratories). Reactivity was detected using fluorescently labeled secondary antibodies. Sections were counterstained with DAPI (Sigma‐Aldrich), mounted in Mowiol 4–88 (Poly Sciences), and digital images acquired using a Leica DM5000B epifluorescence microscope and Leica DFC365FX camera. To quantify percent area stained for Sirius red, PDGFR‐β, and α‐SMA, we analyzed images from each of at least 4 biological replicates by batch processing using a macro created in Image J. Images were converted to 8‐bit grayscale, the threshold adjusted, and percent area measured. To quantify intact proximal tubules with brush borders, LTL‐positive tubules were counted by an observer blinded to the experimental conditions using Image J.

In a further experiment the target is T1, integrin αvβ8 (Homo sapiens, UniProt P06756+P26012).
T1 construct: expressed in transfected cells
The experiment in a line: integrin αvβ8-mediated attachment of transfected HEK-293 cells to LAP. Format: cell-based. The conditions noted are these: mean and SD, at least 3 independent assays; transfected HEK-293, LAP ligand; read-out: IC50, inhibition of αvβ8-mediated cell attachment. The protocol:
(§1) The RGD peptidomimetic CWHM‐12 was synthesized as described in detail previously (Henderson et al., 2013). A close structural analog of this compound with improved oral bioavailability, CWHM‐680, was also synthesized at Saint Louis University. Potency for the compounds in blocking cell attachment mediated by integrins αvβ3, αvβ5, and αvβ6 was measured as previously described (Henderson et al., 2013). Potency for blocking cell attachment mediated by integrins αvβ1, αvβ8, and α8β1 was measured using modifications of this method which are briefly summarized as follows: To assess CWHM‐12 and CWHM‐680 effects on cellular αvβ1 function, we varied its concentration in an assay measuring binding of HEK‐293 cells, which naturally express this integrin (Nagarajan et al., 2007), to the surface of 96‐well plates coated with purified recombinant human TGFβ‐1 latency‐associated peptide (R&D Systems). To assess the effect on cellular αvβ8 function, we performed the assay with the same LAP ligand but with HEK‐293 cells which had been stably transfected to overexpress this integrin. To assess the effect on cellular α8β1 function, we performed the assay using HEK‐293 cells, which had been stably transfected to overexpress this integrin and used purified recombinant mouse nephronectin as the immobilized ligand (R&D Systems). […]

In the next experiment the target is integrin αvβ5 (Homo sapiens, UniProt P06756+P18084). The experiment in a line: integrin αvβ5-mediated cell attachment to ligand. Format: cell-based. The following applies: mean and SD, at least 3 independent assays; read-out: IC50, inhibition of αvβ5-mediated cell attachment. The protocol: as §1
Sequence of integrin αvβ5 (P06756 31-889 limits assumed): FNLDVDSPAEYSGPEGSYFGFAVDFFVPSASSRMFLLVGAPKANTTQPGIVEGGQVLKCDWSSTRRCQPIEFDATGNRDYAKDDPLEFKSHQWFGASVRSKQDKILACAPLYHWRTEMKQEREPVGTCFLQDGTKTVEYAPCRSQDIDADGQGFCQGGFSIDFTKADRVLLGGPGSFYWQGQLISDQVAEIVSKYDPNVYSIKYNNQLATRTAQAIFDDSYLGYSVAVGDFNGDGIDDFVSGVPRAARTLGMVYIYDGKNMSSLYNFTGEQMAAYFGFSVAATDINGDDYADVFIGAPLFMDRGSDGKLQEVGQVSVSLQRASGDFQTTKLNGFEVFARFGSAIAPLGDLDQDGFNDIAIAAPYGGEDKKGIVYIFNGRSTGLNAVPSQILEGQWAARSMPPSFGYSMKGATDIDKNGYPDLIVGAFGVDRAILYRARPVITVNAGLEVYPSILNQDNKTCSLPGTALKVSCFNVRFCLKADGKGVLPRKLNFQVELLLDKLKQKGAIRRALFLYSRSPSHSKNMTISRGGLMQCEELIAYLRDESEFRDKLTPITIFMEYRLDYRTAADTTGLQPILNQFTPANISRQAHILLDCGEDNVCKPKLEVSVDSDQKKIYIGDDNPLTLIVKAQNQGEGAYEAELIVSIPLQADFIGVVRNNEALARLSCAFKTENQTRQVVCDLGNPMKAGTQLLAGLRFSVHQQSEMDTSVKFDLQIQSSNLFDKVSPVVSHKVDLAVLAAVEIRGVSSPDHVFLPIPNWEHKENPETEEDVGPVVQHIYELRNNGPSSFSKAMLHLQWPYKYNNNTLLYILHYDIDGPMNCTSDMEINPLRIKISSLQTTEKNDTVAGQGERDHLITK
Sequence of integrin αvβ5 (P06756 891-1048 partner limits assumed): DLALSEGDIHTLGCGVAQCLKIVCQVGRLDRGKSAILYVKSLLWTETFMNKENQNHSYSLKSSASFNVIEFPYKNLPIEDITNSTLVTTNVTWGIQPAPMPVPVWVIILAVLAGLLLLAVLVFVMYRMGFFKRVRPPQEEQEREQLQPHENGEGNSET
Sequence of integrin αvβ5 (P18084 24-799): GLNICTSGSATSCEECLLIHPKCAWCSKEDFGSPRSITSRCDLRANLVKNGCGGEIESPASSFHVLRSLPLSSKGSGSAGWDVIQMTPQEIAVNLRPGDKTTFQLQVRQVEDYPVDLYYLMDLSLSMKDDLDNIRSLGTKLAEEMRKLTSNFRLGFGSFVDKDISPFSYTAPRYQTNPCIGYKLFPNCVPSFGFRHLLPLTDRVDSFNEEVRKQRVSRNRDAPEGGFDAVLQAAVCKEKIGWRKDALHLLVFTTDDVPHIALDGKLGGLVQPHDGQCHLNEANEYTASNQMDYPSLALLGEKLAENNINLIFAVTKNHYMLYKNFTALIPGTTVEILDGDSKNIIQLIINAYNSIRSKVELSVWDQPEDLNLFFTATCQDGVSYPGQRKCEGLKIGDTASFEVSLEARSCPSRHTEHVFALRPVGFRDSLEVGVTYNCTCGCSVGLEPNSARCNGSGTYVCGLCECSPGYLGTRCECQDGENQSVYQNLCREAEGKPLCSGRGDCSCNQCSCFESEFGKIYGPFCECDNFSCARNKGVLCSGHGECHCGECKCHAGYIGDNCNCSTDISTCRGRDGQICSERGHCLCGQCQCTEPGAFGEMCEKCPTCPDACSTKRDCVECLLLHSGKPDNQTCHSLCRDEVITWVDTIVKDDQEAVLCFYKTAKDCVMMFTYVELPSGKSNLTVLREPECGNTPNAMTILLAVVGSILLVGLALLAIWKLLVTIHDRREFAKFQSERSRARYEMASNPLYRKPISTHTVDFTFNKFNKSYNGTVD

T1 sequence (P06756 31-889 limits assumed): as the sequence (P06756 31-889 limits assumed) above
T1 sequence (P06756 891-1048 partner limits assumed): as the sequence (P06756 891-1048 partner limits assumed) above
T1 sequence (P26012 43-769): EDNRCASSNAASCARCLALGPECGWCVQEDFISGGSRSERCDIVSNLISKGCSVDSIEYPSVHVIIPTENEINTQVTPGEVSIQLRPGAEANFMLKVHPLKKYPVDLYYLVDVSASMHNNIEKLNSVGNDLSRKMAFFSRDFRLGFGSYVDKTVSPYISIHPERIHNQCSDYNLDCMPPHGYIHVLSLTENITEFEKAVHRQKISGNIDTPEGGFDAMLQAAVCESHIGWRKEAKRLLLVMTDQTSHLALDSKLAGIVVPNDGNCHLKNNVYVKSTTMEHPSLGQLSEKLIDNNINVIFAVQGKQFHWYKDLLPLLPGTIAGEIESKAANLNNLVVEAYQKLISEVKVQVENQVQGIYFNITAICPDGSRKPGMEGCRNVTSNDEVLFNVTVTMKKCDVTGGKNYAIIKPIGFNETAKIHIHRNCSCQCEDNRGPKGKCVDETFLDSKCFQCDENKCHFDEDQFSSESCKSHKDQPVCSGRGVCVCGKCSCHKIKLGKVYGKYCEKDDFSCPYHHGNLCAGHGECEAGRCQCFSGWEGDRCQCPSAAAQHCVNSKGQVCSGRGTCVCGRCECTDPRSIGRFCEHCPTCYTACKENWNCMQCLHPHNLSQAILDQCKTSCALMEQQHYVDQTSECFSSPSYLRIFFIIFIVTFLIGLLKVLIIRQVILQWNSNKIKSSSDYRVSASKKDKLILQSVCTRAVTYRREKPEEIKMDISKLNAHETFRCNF

Consider `CC(C)(C)c1cc(Br)cc([C@H](CC(=O)O)NC(=O)CNC(=O)c2cc(O)cc(NC3=NCC(O)CN3)c2)c1` (stereo partly shown) [CWHM‐12], for which, in experiment [1], the “Masson trichrome staining, collagen deposition vs vehicle” value was “reduced collagen deposition”; the “reduction in percent area stained for PDGFR‐β vs vehicle” value is listed as 44%; the “reduction in percent area stained for αSMA vs vehicle” value is 45%. Further, the “reduction in percent area stained by Sirius red vs vehicle” value in experiment [1] (day 27) turned out to be 68%. Further, the “number of intact proximal tubules (LTL staining)” value in experiment [1] (27 days, vehicle 40.9 ± 1.6) was 57.1 ± 1.7. Further, the IC50 (in general, the concentration that gives 50% inhibition) at integrin αvβ8 turned out to be 5.8 ± 2.3 nM. The IC50 on integrin αvβ5 turned out to be 47 ± 26 nM.
